The text below walks through data of ChEMBL document CHEMBL1201862, “PubChem BioAssay data set” (2004).

Assay [1] addresses Heat shock protein HSP 90-alpha (Homo sapiens, UniProt P07900). Format: functional, organism-based.
The target of assay [2] is T1, Leucine aminopeptidase (Plasmodium falciparum 3D7, UniProt Q8IL11).
T1 sequence (Q8IL11 whole entry): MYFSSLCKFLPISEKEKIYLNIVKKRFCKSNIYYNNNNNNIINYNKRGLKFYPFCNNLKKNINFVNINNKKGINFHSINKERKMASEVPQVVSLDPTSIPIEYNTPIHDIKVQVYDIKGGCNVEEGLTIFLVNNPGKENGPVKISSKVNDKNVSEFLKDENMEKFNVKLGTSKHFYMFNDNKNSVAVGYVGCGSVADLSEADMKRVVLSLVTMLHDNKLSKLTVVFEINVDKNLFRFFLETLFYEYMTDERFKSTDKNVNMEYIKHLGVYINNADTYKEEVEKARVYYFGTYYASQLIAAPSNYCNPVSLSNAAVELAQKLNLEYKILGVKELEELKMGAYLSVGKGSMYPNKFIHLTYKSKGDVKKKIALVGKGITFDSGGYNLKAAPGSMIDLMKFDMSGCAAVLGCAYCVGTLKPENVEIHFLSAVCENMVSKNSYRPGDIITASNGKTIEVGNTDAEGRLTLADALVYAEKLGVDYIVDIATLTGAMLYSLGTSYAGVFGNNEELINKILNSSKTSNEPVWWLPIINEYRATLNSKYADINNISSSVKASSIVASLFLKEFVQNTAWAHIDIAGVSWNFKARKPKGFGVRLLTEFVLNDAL
Put plainly: P. falciparum M17LAP inhibitors, primary screen, biochemical, fluorogenic H-Leu-NHMec substrate, 1536-well (AID 1619). Format: functional.

The target of assay [3] is T2, Histone-lysine N-methyltransferase NSD2 (Homo sapiens, UniProt O96028).
T2 sequence (O96028 whole entry): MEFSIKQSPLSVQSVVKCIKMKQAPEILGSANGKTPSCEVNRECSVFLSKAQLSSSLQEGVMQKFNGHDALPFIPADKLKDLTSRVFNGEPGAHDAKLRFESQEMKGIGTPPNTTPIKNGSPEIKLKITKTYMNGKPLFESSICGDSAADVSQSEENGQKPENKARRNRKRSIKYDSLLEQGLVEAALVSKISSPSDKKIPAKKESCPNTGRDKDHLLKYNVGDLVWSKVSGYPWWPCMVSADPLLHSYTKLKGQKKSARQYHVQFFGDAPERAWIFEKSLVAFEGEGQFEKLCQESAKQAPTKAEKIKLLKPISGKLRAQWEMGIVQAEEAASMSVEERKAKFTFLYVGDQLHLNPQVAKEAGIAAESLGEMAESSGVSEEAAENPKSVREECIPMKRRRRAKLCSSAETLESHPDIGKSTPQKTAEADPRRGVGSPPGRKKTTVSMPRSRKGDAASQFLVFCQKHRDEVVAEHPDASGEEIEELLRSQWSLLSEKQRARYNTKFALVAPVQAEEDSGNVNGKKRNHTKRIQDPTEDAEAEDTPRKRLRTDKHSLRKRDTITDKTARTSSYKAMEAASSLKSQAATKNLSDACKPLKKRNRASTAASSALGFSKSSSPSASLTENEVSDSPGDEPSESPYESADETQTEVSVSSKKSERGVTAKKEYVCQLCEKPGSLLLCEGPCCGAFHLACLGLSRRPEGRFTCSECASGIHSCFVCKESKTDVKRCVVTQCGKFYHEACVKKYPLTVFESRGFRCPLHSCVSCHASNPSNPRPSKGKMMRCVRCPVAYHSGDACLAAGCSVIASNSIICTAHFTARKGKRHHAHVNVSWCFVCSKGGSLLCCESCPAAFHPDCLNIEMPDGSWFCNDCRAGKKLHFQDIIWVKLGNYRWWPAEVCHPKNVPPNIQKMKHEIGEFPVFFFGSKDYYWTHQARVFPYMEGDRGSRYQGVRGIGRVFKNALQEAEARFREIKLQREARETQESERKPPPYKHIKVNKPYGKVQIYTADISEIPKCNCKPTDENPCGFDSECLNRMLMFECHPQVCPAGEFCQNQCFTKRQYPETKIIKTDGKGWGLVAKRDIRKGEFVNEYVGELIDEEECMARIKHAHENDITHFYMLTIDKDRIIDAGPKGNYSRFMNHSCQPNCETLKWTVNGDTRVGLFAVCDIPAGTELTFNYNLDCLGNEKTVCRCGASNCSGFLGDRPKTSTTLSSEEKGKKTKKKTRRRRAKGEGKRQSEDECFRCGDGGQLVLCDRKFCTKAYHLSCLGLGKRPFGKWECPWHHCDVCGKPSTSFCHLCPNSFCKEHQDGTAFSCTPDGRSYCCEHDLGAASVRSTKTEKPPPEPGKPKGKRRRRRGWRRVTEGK
The format is biochemical.

Assay [4] has as its target T3, Long-chain-fatty-acid--AMP ligase FadD28 (Mycobacterium tuberculosis, UniProt P9WQ59).
T3 sequence (P9WQ59 whole entry): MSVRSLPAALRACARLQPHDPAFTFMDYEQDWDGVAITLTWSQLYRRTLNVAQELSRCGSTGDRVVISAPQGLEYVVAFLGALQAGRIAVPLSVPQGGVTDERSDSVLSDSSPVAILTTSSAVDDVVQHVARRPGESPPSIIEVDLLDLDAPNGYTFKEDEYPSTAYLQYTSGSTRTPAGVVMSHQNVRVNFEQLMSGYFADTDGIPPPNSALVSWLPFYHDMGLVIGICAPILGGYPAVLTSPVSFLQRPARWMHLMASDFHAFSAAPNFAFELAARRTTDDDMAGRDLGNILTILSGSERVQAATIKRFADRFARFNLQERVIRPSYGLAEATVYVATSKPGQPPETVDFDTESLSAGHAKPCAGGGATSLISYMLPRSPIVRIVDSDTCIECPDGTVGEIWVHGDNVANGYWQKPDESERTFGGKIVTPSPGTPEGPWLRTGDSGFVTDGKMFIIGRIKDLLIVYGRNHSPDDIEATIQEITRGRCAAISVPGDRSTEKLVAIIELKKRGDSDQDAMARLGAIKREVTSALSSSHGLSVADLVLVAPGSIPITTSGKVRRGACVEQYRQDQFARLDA
The assay is described as follows: Fluorescence polarization aasay to screen for inhibitors that compete for the binding of FadD28 to a bisubstrate Measured in Biochemical System Using Plate Reader - 2147-01_Inhibitor_Dose_CherryPick_Activity. Format: functional, Mycobacterium tuberculosis H37Rv. Background: Fluorescence polarisation rises when a labelled molecule tumbles more slowly, as on binding a larger partner.

Assay [5] has as its target Prothrombin (Homo sapiens, UniProt P00734). Put plainly: Thrombin 1536 HTS Dose Response Confirmation. [Related pubchem assays: 1046 (Thrombin 1536 HTS; hits were confirmed in this assay)]. The format is functional.
Assay [6] concerns the target T4, Heat shock factor protein 1 (Mus musculus, UniProt P38532).
T4 sequence (P38532 whole entry): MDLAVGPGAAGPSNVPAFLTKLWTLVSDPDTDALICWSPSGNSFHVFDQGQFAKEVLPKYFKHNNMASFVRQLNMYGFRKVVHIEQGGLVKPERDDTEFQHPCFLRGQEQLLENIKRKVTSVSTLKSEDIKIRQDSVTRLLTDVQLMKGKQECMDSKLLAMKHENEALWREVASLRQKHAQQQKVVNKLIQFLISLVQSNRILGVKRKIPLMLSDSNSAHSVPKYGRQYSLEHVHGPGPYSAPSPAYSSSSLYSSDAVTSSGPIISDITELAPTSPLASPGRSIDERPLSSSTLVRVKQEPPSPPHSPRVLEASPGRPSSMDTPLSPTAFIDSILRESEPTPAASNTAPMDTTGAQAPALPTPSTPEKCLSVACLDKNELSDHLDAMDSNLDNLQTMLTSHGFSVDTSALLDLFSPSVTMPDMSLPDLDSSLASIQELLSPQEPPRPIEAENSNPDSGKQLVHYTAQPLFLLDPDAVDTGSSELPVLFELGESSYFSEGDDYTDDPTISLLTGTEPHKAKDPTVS
The assay is described as follows: decrease of HSF1-responsive luciferase luminescence – cell-based, NIH3T3, dose retest, confirmation (AID 2382).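 Note: NIH3T3 fibroblasts with HSF1-driven luciferase reporter stressed by proteasome inhibitor MG132; luminescence from HSF1-driven luciferase expression after 8 hours of MG132 stress.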 The format is functional.

A short description of assay [7]: blockers of bursicon-stimulated LGR2 cAMP reporter – cell-based, HEK293, CRE-luciferase reporter, cherry pick, set 2, dose response (AID 743343).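 Note: transfected cells were stimulated with diluted bursicon conditioned medium after compound addition.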 The format is functional.
Assay [8] is described as follows: blockade of melanocortin 4 receptor signaling – cell-based, plate reader, cherry pick, counter-screen for LGR2 antagonist project, dose response (AID 743444).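 Note: transfected HEK 293 cells stimulated with alpha-MSH peptide; potency of inhibitors of the alpha-MSH evoked signal.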 The format is functional.
Assay [9] deals with T5, Rac GTPase-activating protein 1 (Homo sapiens, UniProt Q9H0H5).
T5 sequence (Q9H0H5 whole entry): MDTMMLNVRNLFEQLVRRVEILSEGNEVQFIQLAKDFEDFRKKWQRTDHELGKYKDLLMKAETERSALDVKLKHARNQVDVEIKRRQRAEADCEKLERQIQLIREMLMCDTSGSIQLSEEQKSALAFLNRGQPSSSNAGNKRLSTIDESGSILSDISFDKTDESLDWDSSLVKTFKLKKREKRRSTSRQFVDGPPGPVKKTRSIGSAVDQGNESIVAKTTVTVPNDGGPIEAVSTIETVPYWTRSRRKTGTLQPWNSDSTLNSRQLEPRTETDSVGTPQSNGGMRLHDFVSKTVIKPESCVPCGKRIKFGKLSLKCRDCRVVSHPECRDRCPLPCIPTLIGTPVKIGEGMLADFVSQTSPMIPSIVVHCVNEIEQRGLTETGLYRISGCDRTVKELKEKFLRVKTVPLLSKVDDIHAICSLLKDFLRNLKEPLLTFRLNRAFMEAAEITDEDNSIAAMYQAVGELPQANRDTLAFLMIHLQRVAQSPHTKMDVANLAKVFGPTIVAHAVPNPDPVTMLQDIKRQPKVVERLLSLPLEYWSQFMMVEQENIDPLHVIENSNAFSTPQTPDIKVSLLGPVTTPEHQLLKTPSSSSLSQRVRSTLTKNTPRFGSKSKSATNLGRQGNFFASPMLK
The assay is described as follows: blockers of MgcRacGAP-driven Rac1 GTP hydrolysis – biochemical, ADP Hunter fluorescence, primary and confirmatory, confirmation (AID 624330). The format is functional.

Assay [10] concerns the target Paired box protein Pax-8 (Homo sapiens, UniProt Q06710). The assay is described as follows: PAX8 transcriptional activity inhibition in RMG-I – RMG-I cells, luciferase, cherry-pick, dose response (AID 687027).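 Note: luciferase reporter driven by Pax8 target thyroperoxidase promoter measured by SteadyGlo luminescence.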 Format: functional, cell-based.
The nature of assay [11]: OVCAR-3 cell viability loss – plate reader, dry powder samples, PAX8 inhibitor project, dose response (AID 743044). The format is functional, cell-based.
The target in assay [12] is T6, Protein skinhead-1 (Caenorhabditis elegans, UniProt P34707).
T6 sequence (P34707 whole entry): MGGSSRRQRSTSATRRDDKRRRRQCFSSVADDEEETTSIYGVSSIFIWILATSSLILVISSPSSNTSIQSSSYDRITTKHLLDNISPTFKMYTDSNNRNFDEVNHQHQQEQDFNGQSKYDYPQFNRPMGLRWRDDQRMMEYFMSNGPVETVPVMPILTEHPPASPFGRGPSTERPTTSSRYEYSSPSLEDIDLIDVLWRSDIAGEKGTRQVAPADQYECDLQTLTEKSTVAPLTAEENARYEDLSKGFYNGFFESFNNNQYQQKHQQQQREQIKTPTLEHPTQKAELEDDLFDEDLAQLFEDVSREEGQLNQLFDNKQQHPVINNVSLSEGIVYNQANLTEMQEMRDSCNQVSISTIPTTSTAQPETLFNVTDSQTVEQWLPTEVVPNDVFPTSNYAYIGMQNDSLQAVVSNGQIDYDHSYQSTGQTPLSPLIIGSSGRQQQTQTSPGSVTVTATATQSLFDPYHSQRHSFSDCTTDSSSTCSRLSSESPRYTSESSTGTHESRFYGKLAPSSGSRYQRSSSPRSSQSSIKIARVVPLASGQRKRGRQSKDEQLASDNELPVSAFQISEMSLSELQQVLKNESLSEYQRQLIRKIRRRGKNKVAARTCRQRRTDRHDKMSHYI
Format: functional.

Calls of active or inactive are those of the source.

Sequence of Paired box protein Pax-8 (Q06710 whole entry): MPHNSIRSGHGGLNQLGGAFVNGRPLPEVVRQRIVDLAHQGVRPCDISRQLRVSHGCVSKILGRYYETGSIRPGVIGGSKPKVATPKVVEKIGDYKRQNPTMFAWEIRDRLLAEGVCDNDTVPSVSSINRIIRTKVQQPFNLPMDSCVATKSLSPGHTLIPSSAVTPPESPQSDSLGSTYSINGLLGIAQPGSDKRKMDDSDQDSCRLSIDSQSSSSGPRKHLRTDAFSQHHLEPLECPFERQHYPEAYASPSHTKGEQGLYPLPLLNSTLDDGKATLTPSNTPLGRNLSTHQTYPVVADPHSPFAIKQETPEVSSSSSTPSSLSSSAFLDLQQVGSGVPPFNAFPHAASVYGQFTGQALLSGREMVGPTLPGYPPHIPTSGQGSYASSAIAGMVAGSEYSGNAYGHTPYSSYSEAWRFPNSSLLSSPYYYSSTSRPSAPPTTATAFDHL

As for `O=c1c(-c2ccccc2)c(-c2ccccc2)oc2cc(O)cc(O)c12`, the AC50 in assay [1] is 7.78 µM (active).
For the compound `CCCCCOc1ccc(NC(=O)CCCC(=O)O)cc1`, in [2], the IC50 is 11.3 µM (active).
Regarding `COc1cccc(=O)c2c(C)n(-c3ccc(C(=O)O)cc3)c(C)c12`, in assay [3], the AC50 is > 20 µM (inactive).
On to `COc1ccc(NC(=O)CNc2ccccc2N2CCCC2=O)cc1S(=O)(=O)N1CCOCC1`, for which the AC50 in assay [4] is 34.1 µM (active).
For the compound `COc1ccccc1N1CCN(C(=O)CNC(=O)c2cn(-c3ccccc3OC)c(=O)c3ccccc23)CC1`, in [5], the IC50 was 9.56 µM (active).
`Cc1cc(C(=O)COC(=O)C2CC2)c(C)n1-c1ccc(F)cc1`: the EC50 in assay [6] is 1.96 µM (active). The AC50 in [7] is 0.585 µM (active); in [8], 0.334 µM (active).
As to `CCS(=O)(=O)C1=NN2C(=N)/C(=C\c3ccc(O)c(OC)c3)C(=O)N=C2S1`, the results for the IC50 in [9] and in [2] were 37.2 µM (active) and 35.2 µM (active), respectively.
Consider `CCCOP(=O)(c1ccc(N(C)C)cc1)C(O)c1ccncc1` (configuration not stated), for which the IC50 in assay [5] is reported as > 50 µM (not active).
Consider `Cc1ccc(C)c(NC(=O)C2CC=CCC2C(=O)O)c1` (configuration not stated), for which, in assay [2], the IC50 was 18.6 µM (active).
For the compound `Cc1ccc(C(=O)CSc2nc(C)cc(C)c2C(N)=O)cc1`, the IC50 in assay [5] was > 50 µM (not active).
`Nc1ncnc2c1ncn2[C@@H]1O[C@H](CNCc2ccc(OCc3ccccc3)cc2)[C@@H](O)[C@H]1O`: the AC50 in assay [4] is 64.2 µM (active).
Still for that read-out and setting: the result for `COc1cccc(NC(=O)CN(C)C(=O)c2cc3c(s2)CCCCC3)c1` reads 84 µM (active).
For `O=C1C(=O)N(CCS(=O)(=O)c2ccccc2)c2ccc(F)cc21`, the AC50 in assay [3] was 8.09 µM (active).
As to `Cc1ccc(S(=O)(=O)N(C)C[C@@H]2Oc3cc(C#Cc4ccncc4)ccc3S(=O)(=O)N([C@H](C)CO)C[C@@H]2C)cc1`, the results for the concentration at half-maximal activity (AC50) in assay [10] and in [11] were 6.03 µM (active) and 22.4 µM (active), respectively.
For `Cc1ccc2c(c1)C(=O)C(=O)N2Cc1ccc(C(F)(F)F)cc1`, the AC50 in assay [1] was 7.94 µM (active).
In the case of `C/C(=N\NC(=S)NC1CCCCC1)c1cccc(Br)c1`, the IC50 in assay [5] is > 50 µM (inconclusive).
Regarding `CSc1nc(-c2ccco2)nn1C(=O)c1ccc(C)cc1`, the IC50 is 0.16 µM (active) in [5] and > 100 µM (inactive) in assay [12].

The term AC50 denotes the concentration giving half of the maximal activity seen. What is called IC50 is the concentration that gives 50% inhibition. Broadly, the EC50 is the concentration that produces a half-maximal response.
